Results from patent publication US20090136517A1, “COMBINED TREATMENT WITH AN EGFR KINASE INHIBITOR AND AN INHIBITOR OF C-KIT” (priority 2007, published 2009).

Legend:
[1] = test system: MO7e human leukemia cells; settings: cited from earlier work
GEO tumor xenografts = assay: Treatment beyond progression, GEO model; assay type: in vivo, female nu/nu CD-1 mice; settings: GEO xenografts progressing after 15 days of erlotinib; from time of re-sort; n=8 per group
Description: (§1) To run the preclinical treatment beyond progression study GEO cells were harvested from cell culture flasks during exponential cell growth, washed twice with sterile PBS, counted and resuspended in PBS to a suitable concentration before s.c. implantation on the right flank of female nu/nu CD-1 mice. Tumors were established to 200±50 mm^3 in size before randomization into vehicle control or erlotinib treatment groups. […] Each animal was maintained on its designated dosing regimen until its tumor volume from the time of re-sort had doubled.

[2] = test system: H2122 NSCLC tumor xenografts; assay: Growth of H2122 NSCLC tumor xenografts in mice; assay type: in vivo, female nu/nu CD-1 mice; settings: H2122 xenograft, 14th dosing day, single agent 100 mg/kg oral
Protocol: (refrigeration) until dosing. […] Resulting drug was kept at 5° C. (refrigeration) until dosing.

[3] = test system: NCI-H292 tumor xenografts; assay: Treatment beyond progression model, NCI-H292 tumor xenografts; assay type: in vivo, female nu/nu CD-1 mice; settings: H292 xenografts progressing after 32 days of erlotinib; from time of re-sort; n=8 per group
Description: Many patients with NSCLC who initially respond to erlotinib therapy develop progressive disease within a year of treatment. […] The mechanism for this phenomenon is not currently known. To evaluate this a preclinical model of progressive disease was utilized. This model utilizes the NCI-H292 tumor xenografts which initially respond very well to erlotinib treatment.
as §1, with “studies NCI-H292” for “study GEO”

Cc1ccc(NC(=O)c2ccc(CN3CCN(C)CC3)cc2)cc1Nc1nccc(-c2cccnc2)n1 [Gleevec]
GM-CSF stimulated growth of MO7e cells ([1]; GM-CSF stimulated): not affected | apoptosis of MO7e cells ([1]; Kit ligand-stimulated conditions): induces apoptosis | Kit ligand-stimulated growth of MO7e cells ([1]; Kit ligand-stimulated): inhibited

O=C(Nc1ccc(OC(F)(F)F)cc1)c1sccc1NCc1ccnc2ccccc12 [OSI-930, 3-[(Quinolin-4-ylmethyl)amino]-N-[4-(trifluoromethoxy)phenyl]thiophene-2-carboxamide]
time to tumor doubling (GEO tumor xenografts): 23.5 days | tumor volume as percent of the initial tumor volume [2]: ~120% | time to tumor doubling [3]: 30 days

C#Cc1cccc(Nc2ncnc3cc(OCCOC)c(OCCOC)cc23)c1 [erlotinib, [6,7-bis(2-methoxyethoxy)-4-quinazolin-4-yl]-(3-ethynylphenyl) amine]
time to tumor doubling (GEO tumor xenografts): 16.7 days | tumor volume as percent of the initial tumor volume [2]: approximately 250% | time to tumor doubling [3]: 19.6 days
